Laboratory results reported in patent US9332761B2, “Synergistic combination of a chlorotoluron compound and zinc pyrithione for dry film protection” (Rohm and Haas Company, priority 2013, dated 2016).

System: Chlorella sp. ATCC 7516
Experiment: Algal efficacy testing of dry paint films (modified ASTM 5589, 6-well plates)
Format: cell-based
Conditions: 3 weeks; for Total conc, ppm (minimum total biocide concentration in paint reaching pass level): pass level >=75% algal growth inhibition, acrylic/silicone paint film on filter paper
Description: These paints were then diluted with an antimicrobial free acrylic/silicone based paint and mixed to prepare targeted concentrations of antimicrobial compounds for the testing. The total biocides concentrations tested were 125, 250, 500, 1000, 2000 and 5000 ppm. After biocides addition or dilution, the paints were mixed 90 seconds with the horse power shaker (AXEL 75M3372/Agitateur SO-10MI) until uniformity was achieved. Paints containing different antimicrobial compounds at the same levels were mixed together in order to obtain the desired ratio of antimicrobial compounds. After one day, the paints were applied to Schleicher & Schuell filter paper at 280 μm wft and dried for 3 days at room temperature avoiding direct exposure to sunlight. Square discs (1.6 cm×1.6 cm) were cut out from each panel and were used as the substrate for algal efficacy tests. This sample size allowed for an agar border when the sample disc was placed into the well of the test plate.
Algal efficacy was tested according to modified ASTM 5589 which is a standard accelerated test method for determining resistance of various coatings (including paints) to algal defacement. To accommodate for high-throughput screening, this method was scaled down from petri dishes to 6-well plates. Bold Modified Basal Freshwater Nutrient Solution was used as growth medium. A single coated filter paper coupon was placed with a pair of sterile forceps at the center of the agar plug (on top) with the painted surface facing upwards.
Each well that contains a tested coupon was inoculated with 1750 μl of algal suspensions (1×10^6 cfu/ml) making sure that the whole surface (paint film as well as the agar surrounding it) was evenly covered. The plates were incubated at room temp (21° C.-25° C.) with cyclic exposure to light and dark phases, for a period of three weeks.
At the end of the three week incubation period, the samples were scored for percent inhibition regarding color intensity compared to the blank sample.
The Synergy Index calculation was performed as follows.
The SI is calculated based on F. C.
SI value of <1 in the formula indicates a synergism of the blended biocides exists.
The minimal targeted inhibition was set at 75%, meaning a coupon with at least 75% algal growth inhibition was considered as a pass.

Structure (SMILES)	Total conc, ppm (minimum total biocide concentration in paint reaching pass level) [ppm]	inhibition at 1000 ppm (504 h, at total conc 1000 ppm in paint) [%]	% inhibition (at total conc 500 ppm in paint) [%]
Cc1ccc(NC(=O)N(C)C)cc1Cl [Chlorotoluron, N′-(3-chloro-4-methylphenyl)-N,N-dimethylurea]	1000	100	
[O-][n+]1ccccc1[S][Zn][S]c1cccc[n+]1[O-] [ZnPT, bis(2-pyridylthio)zinc 1,1′-dioxide]	500		95
